Laboratory results reported in patent US6737383B1, “Herbicidal oxadiazolidines” (priority 1999, dated 2004).

How the values were obtained:
[1] = tested on: wild oat; assay: Test B pre/postemergence wild oat; format: in vivo, Avena fatua
Method in brief: (§1)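 Test chemicals in a non-phytotoxic solvent mixture with surfactant were sprayed preemergence onto planted seeds and postemergence onto plants 2 to 18 cm tall (1- to 4-leaf stage). After twelve to sixteen days in a greenhouse, injury was visually rated against untreated controls from 0 (no effect) to 10 (complete control).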

[2] = tested on: goosegrass; assay: Test D goosegrass; format: in vivo, Eleusine indica; settings: Preemergence, 0 to 100 scale
Method in brief: (§2)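 Weed seeds planted in sandy loam; species kept apart in individual pots or compartments. Preemergence tests: treatment to soil surface within one day. Greenhouse growth, then visual injury scoring at 14–21 days (0–100).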

[3] = tested on: surinam grass; assay: Test B pre/postemergence surinam grass; format: in vivo, Brachiaria decumbens
Method in brief: as §1

[4] = tested on: bedstraw; assay: Test B pre/postemergence bedstraw; format: in vivo, Galium aparine
Method in brief: as §1

[5] = tested on: Italian ryegrass; assay: Test E Italian ryegrass; format: in vivo, Lolium multiflorum; settings: Preemergence
[6] = tested on: bamyardgrass; assay: Test B flood test barnyardgrass; format: in vivo, Echinochloa crus-galli
Method in brief: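 Each value is a visual injury score relative to controls, with 10 meaning complete control and 0 no effect. Evaluation took place twelve to sixteen days after the 2-leaf-stage plants were treated and kept in the greenhouse.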

[7] = tested on: winter wheat; assay: Test E winter wheat; format: in vivo, Triticum aestivum; settings: Preemergence
[8] = tested on: tall mallow; assay: Test D tall mallow; format: in vivo, Malva sylvestris; settings: Preemergence, 0 to 100 scale
Method in brief: as §2

[9] = tested on: winter wheat; assay: Test E winter wheat; format: in vivo, Triticum aestivum; settings: Postemergence
Method in brief: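 For postemergence, sowings are timed so plants reach the 1- to 4-leaf stage at spraying. Test compound is applied in a surfactant-containing solvent mixture that is non-phytotoxic. Response is judged by eye against untreated controls after approximately 21 to 28 days.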

[10] = tested on: winter barley; assay: Test E winter barley; format: in vivo, Hordeum vulgare; settings: Preemergence
[11] = tested on: green foxtail; assay: Test E green foxtail; format: in vivo, Setaria viridis; settings: Preemergence
[12] = tested on: blackgrass; assay: Test E blackgrass; format: in vivo, Alopecurus myosuroides; settings: Preemergence
[13] = tested on: wild oat; assay: Test E wild oat; format: in vivo, Avena fatua; settings: Preemergence, 0 to 100 scale where 0 is no effect and 100 is complete control
[14] = tested on: Johnson grass; assay: Test D Johnson grass; format: in vivo, Sorghum halepense; settings: Preemergence, 0 to 100 scale
Method in brief: as §2

[15] = tested on: sandbur; assay: Test D sandbur; format: in vivo, Cenchrus echinatus; settings: Preemergence, 0 to 100 scale
Method in brief: as §2

[16] = Postemergence, Rate 62 g/ha, scale 0 to 10, 0 is no effect, 10 is complete control
[17] = Postemergence, Rate 250 g/ha, scale 0 to 10, 0 no effect, 10 complete control
[18] = Preemergence, Rate 31 g/ha, visual rating, scale 0 to 10 (0 no effect, 10 complete control)
[19] = Preemergence, Rate 125 g/ha, scale 0 to 10 (0 no effect, 10 complete control)
[20] = Preemergence, Rate 250 g/ha, scale of 0 to 10 where 0 is no effect and 10 is complete control
[21] = Rate 125 g/ha, Postemergence, scale 0 to 10, 0 no effect, 10 complete control
[22] = Rate 16 g/ha, 0 no injury, 100 complete control
[23] = Rate 32 g/ha, 0 no injury, 100 complete control
[24] = Rate 64 g/ha, 0 no injury, 100 complete control
[25] = Rate 125 g/ha, 0 no injury, 100 complete control
[26] = Preemergence, Rate 62 g/ha, scale 0 to 10, 0 is no effect, 10 is complete control
[27] = Rate 31 g/ha, Postemergence, scale 0 to 10
[28] = Rate 500 g/ha, 0 to 100 scale where 0 is no effect and 100 is complete control
[29] = Rate 1000 g/ha, 0 to 100 scale where 0 is no effect and 100 is complete control

## COc1ccccc1-n1c(=O)on(C(=O)N(c2ccc(F)cc2)C(C)C)c1=O [Compound 30]
[1]; [16]
  Wild oats plant response rating: 0
[1]; [17]
  Wild oats plant response rating: 0
[1]; [18]
  Wild oats plant response rating: 0
[1]; [19]
  Plant response rating, Wild oats: 2
[1]; [20]
  Plant response rating, Wild oats: 8
[1]; [21]
  Wild oats plant response rating: 0
[2]; [22]
  Plant response rating, Goosegrass: 30
[2]; [23]
  Plant response rating, Goosegrass: 40
[2]; [24]
  Plant response rating, Goosegrass: 70
[2]; [25]
  Plant response rating, Goosegrass: 85
[2]; Rate 250 g/ha
  Plant response rating, Goosegrass: 85
[2]; Rate 500 g/ha
  Plant response rating, Goosegrass: 98
[3]; [16]
  B. signalgrass plant response rating: 0
[3]; [17]
  B. signalgrass plant response rating: 0
[3]; [18]
  B. signalgrass plant response rating: 0
[3]; [26]
  Plant response rating, B. signalgrass: 0
[3]; [19]
  Plant response rating, B. signalgrass: 0
[3]; [20]
  Plant response rating, B. signalgrass: 4
[3]; [27]
  B. signalgrass plant response rating: 0
[3]; [21]
  B. signalgrass plant response rating: 0
[4]; [16]
  Bedstraw plant response rating: 0
[4]; [17]
  Bedstraw plant response rating: 0
[4]; [18]
  Bedstraw plant response rating: 0
[4]; [26]
  Plant response rating, Bedstraw: 0
[4]; [19]
  Plant response rating, Bedstraw: 0
[4]; [20]
  Plant response rating, Bedstraw: 0
[4]; [27]
  Bedstraw plant response rating: 0
[4]; [21]
  Bedstraw plant response rating: 0
[5]; Rate 250 g/ha, 0 to 100 scale
  Plant response rating, I. Ryegrass: 20
[5]; [28]
  Plant response rating, I. Ryegrass: 40
[5]; [29]
  Plant response rating, I. Ryegrass: 50
[6]; [16]
  Barnyardgrass plant response rating: 0
[6]; Rate 125 g/ha, Postemergence section (flood test species), scale 0 to 10, 0 no effect, 10 complete control
  Barnyardgrass plant response rating: 0
[6]; Rate 250 g/ha, headed Pre-emergence (flood test species), scale 0 to 10 (0 no effect, 10 complete control)
  Barnyardgrass plant response rating: 0
[6]; Rate 500 g/ha, Postemergence section of Table B, 0 to 10 scale (0 no effect, 10 complete control)
  Barnyardgrass plant response rating: 0
[6]; Rate 500 g/ha, headed Pre-emergence (flood test species), scale 0 to 10 (0 no effect, 10 complete control)
  Plant response rating, Barnyardgrass: 0
[6]; Rate 1000 g/ha, Pre-emergence (as headed), scale 0 to 10
  Barnyardgrass plant response rating: 0
[6]; Rate 2000 g/ha, Pre-emergence (as headed), scale 0 to 10, 0 no effect, 10 complete control
  Barnyardgrass plant response rating: 0
[6]; flood test, listed under Postemergence, Rate 250 g/ha, scale 0 to 10, 0 no effect, 10 complete control
  Barnyardgrass plant response rating: 0
[7]; Rate 250 g/ha, 0 to 100 scale
  Plant response rating, Wheat (winter): 0
[7]; [28]
  Plant response rating, Wheat (winter): 0
[7]; [29]
  Plant response rating, Wheat (winter): 0
[8]; [22]
  Plant response rating, Tall Mallow: 0
[8]; [23]
  Plant response rating, Tall Mallow: 0
[8]; [24]
  Tall Mallow plant response rating: 0
[8]; [25]
  Tall Mallow plant response rating: 0
[8]; Rate 250 g/ha
  Plant response rating, Tall Mallow: 0
[8]; Rate 500 g/ha
  Plant response rating, Tall Mallow: 0
[9]; Rate 250 g/ha, 0 to 100 scale (0 no effect, 100 complete control)
  Plant response rating, Wheat (winter): 0
[9]; Rate 1000 g/ha, 0 to 100 scale, 0 is no effect and 100 is complete control
  Plant response rating, Wheat (winter): 0
[9]; Rate 500 g/ha, 0 to 100 scale, 0 no effect, 100 complete control
  Plant response rating, Wheat (winter): 0
[10]; Rate 250 g/ha, 0 to 100 scale
  Plant response rating, Barley (winter): 10
[10]; [28]
  Plant response rating, Barley (winter): 10
[10]; [29]
  Plant response rating, Barley (winter): 10
[11]; Rate 250 g/ha, 0 to 100 scale
  Plant response rating, Green foxtail: 30
[11]; [28]
  Plant response rating, Green foxtail: 60
[11]; [29]
  Plant response rating, Green foxtail: 60
[12]; Rate 250 g/ha, 0 to 100 scale
  Plant response rating, Blackgrass: 30
[12]; [29]
  Plant response rating, Blackgrass: 30
[13]; Rate 500 g/ha
  Plant response rating, Wild oat: 10
[13]; Rate 1000 g/ha
  Plant response rating, Wild oat: 20
[14]; [22]
  Plant response rating, Johnsongrass: 0
[14]; [23]
  Plant response rating, Johnsongrass: 0
[14]; [24]
  Plant response rating, Johnsongrass: 0
[14]; [25]
  Plant response rating, Johnsongrass: 0
[14]; Rate 250 g/ha
  Plant response rating, Johnsongrass: 0
[14]; Rate 500 g/ha
  Plant response rating, Johnsongrass: 40
[15]; [22]
  Plant response rating, Sandbur: 0
[15]; [23]
  Plant response rating, Sandbur: 0
[15]; [24]
  Sandbur plant response rating: 0
[15]; [25]
  Sandbur plant response rating: 40
[15]; Rate 250 g/ha
  Plant response rating, Sandbur: 40
[15]; Rate 500 g/ha
  Plant response rating, Sandbur: 100
